Measurements published in article PMC10108347, “Heterobifunctional Ligase Recruiters Enable pan-Degradation of Inhibitor of Apoptosis Proteins” (Journal of Medicinal Chemistry, 2023).
Like-named read-outs stand apart in the source and are kept apart here. *1 amine or outer side, *2 acyl side, *3 side chain or, on linkers, in order; H or OH if unused. Where a SMILES comes first, the peptide text is derived from it. Bridges are numbered along the chain shown (N, C = ends). Roman numbers before positions name the chains, in order. [ ]: non-standard residue; d: D form. Hexamethylenediamine = C(CCCN[*:2])CCN[*:1]; dDip = N[C@@H](C(=O)O)C(c1ccccc1)c1ccccc1; Chg = N[C@H](C(=O)O)C1CCCCC1; dNMeA = CN[C@H](C)C(=O)O

How the values were obtained:
[1] = molecular target: cIAP2 (Homo sapiens, UniProt Q13489); test: Immunoblotting (western blot) quantification of cIAP2 levels in MM.1S cells; conditions: 16 h; for remaining activity at 0.1 µM: MM1.S
Protocol: (§3) To evaluate the capability of our panel of hetero-PROTACs for E3 ligase degradation, VHL19, VHL30, CRBN, cIAP1, cIAP2, and XIAP levels were quantified by western blot analyses. […] SDS-PAGE was performed, and proteins were then transferred onto PVDF membranes. Blotted membranes were blocked with 5% milk in Tris-buffered saline/Tween20 (TBST). Primary antibodies were diluted in 5% BSA in TBST, and incubations were performed overnight at 4 °C. Secondary HRP-conjugated antibodies diluted in 5% milk were incubated for 1 h at room temperature. Detection of proteins on PVDF was carried out using the WesternBright ECL HRP substrate or the WesternBright Sirius HRP substrate (Advansta, San Jose, USA) and imaged with LAS 4000× (Fujifilm). Membranes were subjected to 10 min incubation with Restore Western Blot Stripping Buffer (Thermo Fisher Scientific, Waltham, USA), followed by TBST washes. After brief re-activation with methanol, the membranes were blocked, and further probing of proteins was carried out.
(§4) Quantification of blots was performed using ImageJ software (National Institutes of Health).

[2] = molecular target: T1, XIAP (Homo sapiens, UniProt P98170); test: Immunoblotting of XIAP in HG3 wild-type and HG3 VHL-knockout cells; type: cell-based; parameters: endogenous in cells; host or cells: MM.1S; conditions: 1 μM, 16 h
Protocol: (§1) Next, cellular activities of hetero-PROTACs 2, 4, and 6 were evaluated in chronic lymphocytic leukemia cells (HG3), for which a VHL-knockout cell line was created (Figure 5). […] Thus, VHL knockout confirmed the involvement of E3 ubiquitin ligase CRL2^VHL in the induced degradation of XIAP (and, at least in part, cIAP1) by these IAP-VHL heterobifunctional PROTACs. This provides additional evidence that the degradation of IAPs relies on the formation of a hetero–ternary complex consisting of both ligases and the degraders.
(§2) For generation of lentiviral vectors, HEK293T cells were transfected with constructs along with the packaging and envelope vectors. Viral supernatants were harvested 48 h after transfection and were used to transduce cell lines. MM.1S and HG3 cells were transduced with virus containing pLKO5d.SSF.SpCas9.P2a.BSD, and cells were selected with blasticidin. Selected cells were then transduced with respective sgRNA constructs targeting VHL, cIAP1, cIAP2, XIAP, and negative control luciferase, which were cloned into pLKO5.hU6.sgRNA.dTom. Transduction success was confirmed through FACS analysis 48 h post-transduction with a minimum efficiency of 95% tomato fluorescence.

[3] = molecular target: T1, XIAP; test: Immunoblotting (western blot) quantification of XIAP levels in MM.1S cells; conditions: 16 h; for remaining activity at 0.1 µM: MM1.S
Protocol: as §3, §4

[4] = molecular target: VHL30 (Homo sapiens, UniProt P40337); test: Immunoblotting (western blot) quantification of VHL30 levels in MM.1S cells; conditions: for remaining activity at 0.1 µM: MM1.S, 16 h; for VHL30 degradation (in words): MM.1S cells, western blot
Protocol: as §3, §4

[5] = molecular target: T2, cIAP1 (Homo sapiens, UniProt Q13490); test: Immunoblotting (western blot) quantification of cIAP1 levels in MM.1S cells; conditions: 16 h; for remaining activity at 0.1 µM: MM1.S
[6] = molecular target: T2, cIAP1; test: Immunoblotting of cIAP1 in HG3 wild-type and HG3 VHL-knockout cells; type: cell-based; parameters: endogenous in cells; host or cells: MM.1S; conditions: 1 μM, 16 h
Protocol: as §1, §2

[7] = molecular target: VHL19 (Homo sapiens, UniProt P40337); test: Immunoblotting (western blot) quantification of VHL19 levels in MM.1S cells; conditions: 16 h
Protocol: as §3, §4

[8] = physchem; conditions: pH 7.4
Protocol: The system was calibrated by plotting the retention times of six different drugs (atenolol, metoprolol, labetalol, diltiazem, triphenylene, and permethrin) versus their literature-known log D7.4 in a calibration line (R^2 = 0.99). Subsequently, the mean retention times of the analytes were taken to calculate their log D7.4 values with the aid of the calibration line. At least two independent measurements of each analyte were performed.

[9] = tested on: IAPs (cIAP1, cIAP2, XIAP); test: Immunoblotting of IAPs in MM.1S cells, overall degradation profile, time course and washout; type: cell-based; conditions: 16 h, western blot, concentration (10 nM to 1 μM)
Protocol: Next, we examined the persistence of IAP degradation in MM.1S cells after a single exposure to 1 μM of 9 and subsequent removal of the compound. […] The reliance on CRL2^VHL was assessed with a neddylation inhibitor MLN4924, which blocks the activity of CRLs (Figure S13A).

[10] = read-out: %remaining protein cIAP2, MM.1S cells, 16 h treatment at 0.1 μM, normalized to loading control and DMSO
[11] = read-out: %remaining protein XIAP, MM.1S cells, 16 h treatment at 0.1 μM, normalized to loading control and DMSO
[12] = read-out: %remaining protein VHL30, MM.1S cells, 16 h treatment at 0.1 μM, normalized to loading control and DMSO
[13] = read-out: %remaining protein cIAP1, MM.1S cells, 16 h treatment at 0.1 μM, normalized to loading control and DMSO
[14] = MM.1S cells, western blot, 0.1 or 1 μM

Chain of cIAP2 (Q13489 whole entry): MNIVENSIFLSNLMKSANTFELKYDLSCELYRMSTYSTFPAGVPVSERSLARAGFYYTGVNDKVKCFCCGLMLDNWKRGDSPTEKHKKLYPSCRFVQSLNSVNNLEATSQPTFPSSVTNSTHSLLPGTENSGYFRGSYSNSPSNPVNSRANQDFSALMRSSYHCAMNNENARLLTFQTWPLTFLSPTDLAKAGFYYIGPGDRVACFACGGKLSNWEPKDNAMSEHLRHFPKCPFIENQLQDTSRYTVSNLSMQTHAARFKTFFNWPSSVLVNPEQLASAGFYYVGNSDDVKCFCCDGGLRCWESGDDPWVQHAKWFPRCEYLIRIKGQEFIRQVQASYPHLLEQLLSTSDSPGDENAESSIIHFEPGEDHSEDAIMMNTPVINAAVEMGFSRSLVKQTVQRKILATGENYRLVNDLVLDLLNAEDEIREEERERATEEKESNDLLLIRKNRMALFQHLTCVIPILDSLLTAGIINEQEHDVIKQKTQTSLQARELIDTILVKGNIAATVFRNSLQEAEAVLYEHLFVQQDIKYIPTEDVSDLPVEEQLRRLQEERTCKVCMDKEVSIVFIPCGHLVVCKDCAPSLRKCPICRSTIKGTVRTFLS
T1 sequence (P98170 whole entry): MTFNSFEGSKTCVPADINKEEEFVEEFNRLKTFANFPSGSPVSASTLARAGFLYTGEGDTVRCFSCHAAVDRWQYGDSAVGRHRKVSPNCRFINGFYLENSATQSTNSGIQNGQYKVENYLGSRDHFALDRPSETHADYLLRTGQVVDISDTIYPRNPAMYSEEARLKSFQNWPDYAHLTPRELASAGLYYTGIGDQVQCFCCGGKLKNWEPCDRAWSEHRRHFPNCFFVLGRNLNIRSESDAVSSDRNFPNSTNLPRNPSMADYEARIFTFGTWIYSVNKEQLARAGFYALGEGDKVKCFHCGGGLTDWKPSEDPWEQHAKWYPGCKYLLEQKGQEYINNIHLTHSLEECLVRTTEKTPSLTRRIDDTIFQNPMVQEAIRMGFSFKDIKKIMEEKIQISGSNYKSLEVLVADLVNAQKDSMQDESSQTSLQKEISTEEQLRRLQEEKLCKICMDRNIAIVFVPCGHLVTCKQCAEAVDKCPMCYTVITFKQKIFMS
T2 sequence (Q13490 whole entry): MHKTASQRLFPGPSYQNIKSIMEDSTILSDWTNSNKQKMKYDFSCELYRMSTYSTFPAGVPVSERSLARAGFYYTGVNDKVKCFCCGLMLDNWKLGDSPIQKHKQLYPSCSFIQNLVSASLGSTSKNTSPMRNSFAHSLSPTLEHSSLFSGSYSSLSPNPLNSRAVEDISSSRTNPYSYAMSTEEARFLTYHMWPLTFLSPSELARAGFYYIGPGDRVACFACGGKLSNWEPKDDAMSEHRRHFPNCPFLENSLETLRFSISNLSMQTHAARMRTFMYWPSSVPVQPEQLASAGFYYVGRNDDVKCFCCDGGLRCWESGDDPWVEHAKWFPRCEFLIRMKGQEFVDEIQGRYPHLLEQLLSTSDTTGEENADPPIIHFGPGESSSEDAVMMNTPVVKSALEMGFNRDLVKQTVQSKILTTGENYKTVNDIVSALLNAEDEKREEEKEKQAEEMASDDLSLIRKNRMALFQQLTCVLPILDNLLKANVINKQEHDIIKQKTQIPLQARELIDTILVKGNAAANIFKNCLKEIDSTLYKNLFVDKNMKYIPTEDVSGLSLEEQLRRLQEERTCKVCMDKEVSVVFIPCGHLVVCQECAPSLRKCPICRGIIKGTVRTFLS
Chain of VHL30 (P40337 whole entry): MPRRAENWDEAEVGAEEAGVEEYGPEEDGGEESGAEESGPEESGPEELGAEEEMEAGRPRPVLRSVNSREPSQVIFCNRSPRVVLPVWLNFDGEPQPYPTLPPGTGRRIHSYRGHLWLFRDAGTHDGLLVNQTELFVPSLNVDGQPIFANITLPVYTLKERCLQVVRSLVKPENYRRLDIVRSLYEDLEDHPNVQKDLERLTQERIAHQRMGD
Chain of VHL19 (P40337 54-213): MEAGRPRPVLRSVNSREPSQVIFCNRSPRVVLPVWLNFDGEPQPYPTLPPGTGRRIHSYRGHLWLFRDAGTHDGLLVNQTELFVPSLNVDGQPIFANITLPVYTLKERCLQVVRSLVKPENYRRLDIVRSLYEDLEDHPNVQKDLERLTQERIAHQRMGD

Row | cIAP2 degradation (in words) [1, 14] | XIAP degradation (in words) [3, 14] | cIAP1 degradation (in words) [5, 14] | chromatographic logD [8] | remaining VHL19 ([7]; 1 μM) | Compound | remaining activity at 0.1 µM ([1]; read-out: %remaining protein cIAP2) | XIAP degradation in VHL+/+ and VHL–/– HG3 cells (in words) [2] | remaining activity at 0.1 µM ([3]; read-out: %remaining protein XIAP) | remaining activity at 0.1 µM ([4]; read-out: %remaining protein VHL30) | remaining activity at 0.1 µM ([5]; read-out: %remaining protein cIAP1) | cIAP1 degradation in VHL+/+ and VHL–/– HG3 cells (in words) [6] | remaining activity at 0.1 µM [1, 10] | remaining activity at 0.1 µM [3, 11] | VHL19 degradation (in words) ([7]; western blot) | remaining activity at 0.1 µM [4, 12] | VHL30 degradation (in words) [4] | remaining activity at 0.1 µM [5, 13] | IAP degradation profile (in words) [9]
1 |  |  |  |  |  | CN[C@@H](C)C(=O)N[C@H](C(=O)N1C[C@@H](Oc2cccc(OCCCCCCOCCCCCCOCC(=O)N[C@H](C(=O)N3C[C@H](O)C[C@H]3C(=O)NCc3ccc(-c4scnc4C)cc3)C(C)(C)C)c2)C[C@H]1C(=O)N[C@@H]1CCCc2ccccc21)C1CCCCC1 [PROTAC 6, (2S,4S)-1-((S)-2-Cyclohexyl-2-((S)-2-(methylamino)propanamido)acetyl)-4-(3-((6-((6-(2-(((S)-1-((2S,4R)-4-hydroxy-2-((4-(4-methylthiazol-5-yl)benzyl)carbamoyl)pyrrolidin-1-yl)-3,3-dimethyl-1-oxobutan-2-yl)amino)-2-oxoethoxy)hexyl)oxy)hexyl)oxy)phenoxy)-N-((R)-1,2,3,4-tetrahydronaphthalen-1-yl)pyrrolidine-2-carboxamide] | 29% | occurred only in HG3 wild-type cells | 2% | 78% | 2% | cIAP1 autodegradation was observed |  |  |  |  |  |  | 
2 |  |  |  |  |  | CN[C@@H](C)C(=O)N[C@H](C(=O)N1C[C@@H](Oc2cccc(OCCCCCCCC(=O)N[C@H](C(=O)N3C[C@H](O)C[C@H]3C(=O)NCc3ccc(-c4scnc4C)cc3)C(C)(C)C)c2)C[C@H]1C(=O)N[C@@H]1CCCc2ccccc21)C1CCCCC1 [PROTAC 2, (2S,4S)-1-((S)-2-Cyclohexyl-2-((S)-2-(methylamino)propanamido)acetyl)-4-(3-((8-(((S)-1-((2S,4R)-4-hydroxy-2-((4-(4-methylthiazol-5-yl)benzyl)carbamoyl)pyrrolidin-1-yl)-3,3-dimethyl-1-oxobutan-2-yl)amino)-8-oxooctyl)oxy)phenoxy)-N-((R)-1,2,3,4-tetrahydronaphthalen-1-yl)pyrrolidine-2-carboxamide] |  | occurred only in HG3 wild-type cells |  |  |  | cIAP1 autodegradation was observed | 23% | 5% | slight hook effect for VHL19 degradation | 28% | strong and dose-dependent VHL30 degradation | 4% | 
3 | substantial degradation | failed to degrade XIAP | substantial degradation | 3.4 |  | CN[C@H](C)C(=O)N[C@H](C(=O)N1CCC[C@@H]1C(=O)N[C@@H](C(=O)NCCCCCCNC(=O)[C@H](NC(=O)[C@H]1CCCN1C(=O)[C@@H](NC(=O)[C@@H](C)NC)C1CCCCC1)C(c1ccccc1)c1ccccc1)C(c1ccccc1)c1ccccc1)C1CCCCC1 [BV6, reference compound] (I: H-[dNMeA][Chg][dP][dDip] / II: H-[dNMeA][Chg][dP][dDip]; linker I:C-II:C via Hexamethylenediamine) |  |  |  |  |  |  |  |  |  |  |  |  | potent cIAP autodegradation
4 |  |  |  |  | 42% | CN[C@@H](C)C(=O)N[C@H](C(=O)N1C[C@@H](Oc2cccc(OCCCCC(=O)N[C@H](C(=O)N3C[C@H](O)C[C@H]3C(=O)NCc3ccc(-c4scnc4C)cc3)C(C)(C)C)c2)C[C@H]1C(=O)N[C@@H]1CCCc2ccccc21)C1CCCCC1 [PROTAC 1, (2S,4S)-1-((S)-2-Cyclohexyl-2-((S)-2-(methylamino)propanamido)acetyl)-4-(3-((5-(((S)-1-((2S,4R)-4-hydroxy-2-((4-(4-methylthiazol-5-yl)benzyl)carbamoyl)pyrrolidin-1-yl)-3,3-dimethyl-1-oxobutan-2-yl)amino)-5-oxopentyl)oxy)phenoxy)-N-((R)-1,2,3,4-tetrahydronaphthalen-1-yl)pyrrolidine-2-carboxamide] |  |  |  |  |  |  | 33% | 5% |  | 36% | strong and dose-dependent VHL30 degradation | 7% | pan-IAP degrader
5 |  |  |  |  |  | CN[C@@H](C)C(=O)N[C@H](C(=O)N1C[C@@H](Oc2cccc(OCCOCCOCC(=O)N[C@H](C(=O)N3C[C@H](O)C[C@H]3C(=O)NCc3ccc(-c4scnc4C)cc3)C(C)(C)C)c2)C[C@H]1C(=O)N[C@@H]1CCCc2ccccc21)C1CCCCC1 [PROTAC 4, (2S,4S)-1-((S)-2-Cyclohexyl-2-((S)-2-(methylamino)propanamido)acetyl)-4-(3-(2-(2-(2-(((S)-1-((2S,4R)-4-hydroxy-2-((4-(4-methylthiazol-5-yl)benzyl)carbamoyl)pyrrolidin-1-yl)-3,3-dimethyl-1-oxobutan-2-yl)amino)-2-oxoethoxy)ethoxy)ethoxy)phenoxy)-N-((R)-1,2,3,4-tetrahydronaphthalen-1-yl)pyrrolidine-2-carboxamide] |  | occurred only in HG3 wild-type cells |  |  |  | cIAP1 autodegradation was observed | 40% | 7% |  | 44% |  | 4% | 
